Our source for the EC50 values is article PMC7253176, “Characterization of the kinetic cycle of an ABC transporter by single-molecule and cryo-EM analyses” (eLife, 2020).

The target of test [1] is T1, bovine multidrug resistance protein 1 (bMRP1) (Bos taurus, UniProt Q8HXQ5, DEL868-879).
T1 construct: gene ABCC1; purified WT bMRP1 with S6 peptide replacing residues 868–879 and A1 peptide after V1530, Cy3/LD655-labeled
Description: smFRET dose response of IF1 state occupancy (purified protein); also stimulates ATPase activity. The format is binding.

Test [2] addresses T2, bovine multidrug resistance protein 1 (bMRP1) (Bos taurus, UniProt Q8HXQ5).
T2 construct: gene ABCC1
Description: biochemical.

T1 sequence (Q8HXQ5 1-867, stated change not applied): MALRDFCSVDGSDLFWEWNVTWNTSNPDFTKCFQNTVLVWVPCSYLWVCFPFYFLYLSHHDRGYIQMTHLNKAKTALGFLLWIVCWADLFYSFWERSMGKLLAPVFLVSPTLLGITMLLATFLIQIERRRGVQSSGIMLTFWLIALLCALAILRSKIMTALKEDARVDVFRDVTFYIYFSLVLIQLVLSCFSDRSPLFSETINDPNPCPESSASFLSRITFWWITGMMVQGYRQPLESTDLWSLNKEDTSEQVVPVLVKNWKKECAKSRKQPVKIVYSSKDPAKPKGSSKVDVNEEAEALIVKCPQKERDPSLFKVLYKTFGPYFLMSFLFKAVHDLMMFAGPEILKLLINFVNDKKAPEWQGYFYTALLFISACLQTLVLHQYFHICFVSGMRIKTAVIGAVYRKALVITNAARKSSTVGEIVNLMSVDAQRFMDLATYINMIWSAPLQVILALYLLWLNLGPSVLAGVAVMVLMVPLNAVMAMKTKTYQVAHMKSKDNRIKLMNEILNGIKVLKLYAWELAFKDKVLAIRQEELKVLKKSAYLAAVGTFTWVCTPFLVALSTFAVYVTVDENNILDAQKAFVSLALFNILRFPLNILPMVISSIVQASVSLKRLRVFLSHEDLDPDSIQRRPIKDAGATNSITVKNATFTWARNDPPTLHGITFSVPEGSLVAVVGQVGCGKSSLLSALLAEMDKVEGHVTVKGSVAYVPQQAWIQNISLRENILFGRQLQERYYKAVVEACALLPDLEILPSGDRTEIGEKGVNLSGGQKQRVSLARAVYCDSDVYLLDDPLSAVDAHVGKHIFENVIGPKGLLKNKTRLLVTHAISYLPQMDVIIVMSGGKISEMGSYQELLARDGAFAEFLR
T1 sequence (Q8HXQ5 880-1530, stated change not applied): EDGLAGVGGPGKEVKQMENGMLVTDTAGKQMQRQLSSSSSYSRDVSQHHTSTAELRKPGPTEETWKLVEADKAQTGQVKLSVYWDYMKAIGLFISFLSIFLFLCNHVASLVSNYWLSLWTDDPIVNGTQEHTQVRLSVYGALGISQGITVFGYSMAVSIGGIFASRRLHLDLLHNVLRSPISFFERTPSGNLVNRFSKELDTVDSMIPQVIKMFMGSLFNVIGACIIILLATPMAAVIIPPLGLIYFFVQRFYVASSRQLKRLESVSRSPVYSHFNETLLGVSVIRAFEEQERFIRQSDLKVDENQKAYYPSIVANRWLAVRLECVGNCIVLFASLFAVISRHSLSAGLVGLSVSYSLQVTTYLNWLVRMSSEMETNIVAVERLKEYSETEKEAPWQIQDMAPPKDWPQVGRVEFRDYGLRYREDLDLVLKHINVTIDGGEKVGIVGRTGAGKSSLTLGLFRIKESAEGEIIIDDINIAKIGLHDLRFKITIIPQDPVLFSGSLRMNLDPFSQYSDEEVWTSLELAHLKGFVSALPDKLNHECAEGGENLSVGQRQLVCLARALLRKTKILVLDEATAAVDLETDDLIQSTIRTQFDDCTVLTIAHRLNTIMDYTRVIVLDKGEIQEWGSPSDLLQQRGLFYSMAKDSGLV
T2 sequence (Q8HXQ5 whole entry): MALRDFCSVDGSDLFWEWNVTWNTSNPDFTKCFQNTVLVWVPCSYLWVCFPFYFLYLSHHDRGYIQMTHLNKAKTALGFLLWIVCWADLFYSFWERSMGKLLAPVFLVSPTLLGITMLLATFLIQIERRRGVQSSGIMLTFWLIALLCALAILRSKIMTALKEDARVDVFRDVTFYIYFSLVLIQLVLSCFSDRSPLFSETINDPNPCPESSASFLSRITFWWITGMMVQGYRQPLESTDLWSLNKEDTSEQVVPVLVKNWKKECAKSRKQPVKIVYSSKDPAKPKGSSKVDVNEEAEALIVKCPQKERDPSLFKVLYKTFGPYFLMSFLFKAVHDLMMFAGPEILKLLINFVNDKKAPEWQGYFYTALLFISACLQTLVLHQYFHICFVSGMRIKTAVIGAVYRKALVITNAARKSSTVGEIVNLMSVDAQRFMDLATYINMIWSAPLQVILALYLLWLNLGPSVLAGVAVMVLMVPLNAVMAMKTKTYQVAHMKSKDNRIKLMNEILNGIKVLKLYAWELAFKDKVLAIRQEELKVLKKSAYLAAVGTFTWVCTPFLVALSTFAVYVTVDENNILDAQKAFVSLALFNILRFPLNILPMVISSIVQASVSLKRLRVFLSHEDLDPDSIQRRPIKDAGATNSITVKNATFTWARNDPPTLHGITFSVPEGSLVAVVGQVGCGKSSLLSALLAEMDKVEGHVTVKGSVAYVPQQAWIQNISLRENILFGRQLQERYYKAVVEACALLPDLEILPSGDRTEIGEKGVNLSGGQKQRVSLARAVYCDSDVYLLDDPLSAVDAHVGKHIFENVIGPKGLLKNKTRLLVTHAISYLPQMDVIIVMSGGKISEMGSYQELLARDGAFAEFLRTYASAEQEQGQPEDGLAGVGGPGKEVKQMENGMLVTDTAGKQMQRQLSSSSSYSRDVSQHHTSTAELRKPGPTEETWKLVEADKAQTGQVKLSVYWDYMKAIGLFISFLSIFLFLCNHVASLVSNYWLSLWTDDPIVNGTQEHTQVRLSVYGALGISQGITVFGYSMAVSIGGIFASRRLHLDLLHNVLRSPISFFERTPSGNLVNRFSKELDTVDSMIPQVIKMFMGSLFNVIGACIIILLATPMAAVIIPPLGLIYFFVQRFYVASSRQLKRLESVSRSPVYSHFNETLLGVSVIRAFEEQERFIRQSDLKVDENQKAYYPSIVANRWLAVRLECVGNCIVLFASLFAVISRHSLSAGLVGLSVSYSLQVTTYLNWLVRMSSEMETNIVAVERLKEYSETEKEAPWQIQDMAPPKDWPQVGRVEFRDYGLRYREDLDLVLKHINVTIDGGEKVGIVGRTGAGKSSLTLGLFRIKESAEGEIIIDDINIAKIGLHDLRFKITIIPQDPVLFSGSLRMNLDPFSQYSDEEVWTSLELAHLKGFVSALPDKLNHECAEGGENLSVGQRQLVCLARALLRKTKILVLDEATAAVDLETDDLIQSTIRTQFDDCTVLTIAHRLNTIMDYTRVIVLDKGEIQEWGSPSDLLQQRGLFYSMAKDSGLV

As for `CCCCC/C=C\C\C=C/C=C/C=C/[C@@H](SC[C@H](NC(=O)CC[C@H](N)C(=O)O)C(=O)NCC(=O)O)[C@@H](O)CCCC(=O)O` [Leukotriene C4], the EC50 – broadly, the concentration at which the effect is half-maximal – in test [1] came out at 0.32 ± 0.17 µM.
In test [2], `Nc1ncnc2c1ncn2[C@@H]1O[C@H](COP(=O)(O)OP(=O)(O)OP(=O)(O)O)[C@@H](O)[C@H]1O` [ATP] yielded an EC50 of 50 ± 20 µM.
